26 compounds from patent publication US20130096067A1, “DROSOPHILA TUMOR STEM CELL MODEL AND USES THEREOF” (priority 2011, published 2013) can be followed below.

In the assay the test system is Raf-1^gof intestinal tumors. In words: Luciferase screen of FDA-approved (NCI) drugs in 96-well plates, flies with Raf-1^gof intestinal tumors. As to Avg (3 + 6): test concentration or dose not given here. As to Log2 (fold): test concentration or dose not given here. It counts as in vivo, Drosophila.
Setting [1] is: average of Day 3 and Day 6 fold.
Setting [2] is: log2 of the Day 3 fold difference in luciferase relative to DMSO controls.
The mark [3] stands for this setting: luciferase activity relative to DMSO controls, single dose of drug for three days, 96-well plates.
The mark [4] stands for this setting: six-day protocol: single dose for three days, then another dose for three more days.

The structures appear in SMILES notation. Structures can show the parent of a compound that is named as a salt.

`CC(C)Cn1cnc2c(N)nc3ccccc3c21` [Imiquimod]: the “Avg (3 + 6)” value under setting [1] is listed as 0.888 fold. The “Log2 (fold)” value under setting [2] was determined as 0.086. Moreover, the “Day 3 Fold” value under setting [3] came out at 1.061 fold. Moreover, the “Day 6 Fold” value under setting [4] was determined as 0.715 fold.
`CCc1c2c(nc3ccc(OC(=O)N4CCC(N5CCCCC5)CC4)cc13)-c1cc3c(c(=O)n1C2)COC(=O)[C@]3(O)CC` [Irinotecan HCl]: for the setting “in vivo”, the “Avg (3 + 6)” value turned out to be 0.705 fold, the “Day 3 Fold” value worked out at 0.870 fold, the “Day 6 Fold” value is 0.541 fold and the “Log2 (fold)” value is −0.201.
On to `C/C(=C\c1csc(C)n1)[C@@H]1C[C@@H]2O[C@]2(C)CCC[C@H](C)[C@H](O)[C@@H](C)C(=O)C(C)(C)[C@@H](O)CC(=O)N1` [Ixabepilone], for which the “Avg (3 + 6)” value under setting [1] is on record as 0.765 fold. Besides, the “Log2 (fold)” value under setting [2] was −0.009. In addition, under setting [3], the “Day 3 Fold” value is recorded as 0.994 fold. Further, under setting [4], the “Day 6 Fold” value is on record as 0.536 fold.
`CS(=O)(=O)CCNCc1ccc(-c2ccc3ncnc(Nc4ccc(OCc5cccc(F)c5)c(Cl)c4)c3c2)o1` [Lapatinib]: under setting [1], the “Avg (3 + 6)” value was found to be 0.976 fold. The “Log2 (fold)” value under setting [2] is given as −0.097. Further, the “Day 3 Fold” value under setting [3] was found to be 0.935 fold. In addition, the “Day 6 Fold” value under setting [4] turned out to be 1.017 fold.
The matching figures for `Nc1cccc2c1CN(C1CCC(=O)NC1=O)C2=O` (stereo not drawn) [Lenalidomide]: 0.853 fold, −0.117, 0.922 fold and 0.784 fold.
The matching figures for `N#Cc1ccc(C(c2ccc(C#N)cc2)n2cncn2)cc1` [Letrozole]: 1.302 fold, 0.337, 1.263 fold and 1.342 fold.
For the compound `O=NN(CCCl)C(=O)NC1CCCCC1` [Lomustine, CCNU, Lomustine], the “Avg (3 + 6)” value under setting [1] is 0.712 fold. In addition, under “po, 72 h”, the “Day 3 Fold” value is listed as 0.651 fold and the “Log2 (fold)” value was −0.619.
`CC(=O)O[C@]1(C(C)=O)CC[C@H]2[C@@H]3C=C(C)C4=CC(=O)CC[C@]4(C)[C@H]3CC[C@@]21C` [Megestrol acetate]: the “Avg (3 + 6)” value under setting [1] turned out to be 1.219 fold. Further, under setting [2], the “Log2 (fold)” value is 0.418. In addition, the “Day 3 Fold” value under setting [3] came to 1.336 fold. Under setting [4], the “Day 6 Fold” value turned out to be 1.101 fold.
The matching figures for `N[C@@H](Cc1ccc(N(CCCl)CCCl)cc1)C(=O)O` [Melphalan]: 0.939 fold, 0.001, 1.001 fold and 0.876 fold.
The matching figures for `S=c1nc[nH]c2nc[nH]c12` [Mercaptopurine]: 0.945 fold, 0.101, 1.072 fold and 0.818 fold.
In the same order, the values of `COc1c2occc2cc2ccc(=O)oc12` [Methoxsalen] are 0.927 fold, −0.016, 0.989 fold and 0.866 fold.
With `Clc1ccc(C(c2ccccc2Cl)C(Cl)Cl)cc1` (stereo not drawn) [Mitotane], for the setting “in vivo”, the “Avg (3 + 6)” value is recorded as 0.882 fold, the “Day 3 Fold” value is given as 0.827 fold, the “Day 6 Fold” value came out at 0.938 fold and the “Log2 (fold)” value is −0.274.
Consider `O=C1c2c(O)ccc(O)c2C(=O)c2c(NCCNCCO)ccc(NCCNCCO)c21` [Mitoxantrone], for which the “Avg (3 + 6)” value under setting [1] amounted to 0.883 fold. In addition, the “Log2 (fold)” value under setting [2] was −0.303. Besides, under setting [3], the “Day 3 Fold” value is reported as 0.810 fold. Besides, under setting [4], the “Day 6 Fold” value is given as 0.955 fold.
The matching figures for `COc1nc(N)nc2c1ncn2[C@@H]1O[C@H](CO)[C@@H](O)[C@@H]1O` [Nelarabine]: 1.194 fold, 0.166, 1.122 fold and 1.266 fold.
In the same order, the values of `Cc1cn(-c2cc(NC(=O)c3ccc(C)c(Nc4nccc(-c5cccnc5)n4)c3)cc(C(F)(F)F)c2)cn1` [Nilotinib] are 0.804 fold, −0.615, 0.653 fold and 0.956 fold.
In the same order, the values of `O=C1[O][Pt]2([NH][C@@H]3CCCC[C@H]3[NH]2)[O]C1=O` [Oxaliplatin] are 1.082 fold, 0.296, 1.227 fold and 0.936 fold.
As for `Nc1nc2[nH]cc(CCc3ccc(C(=O)N[C@@H](CCC(=O)O)C(=O)O)cc3)c2c(=O)[nH]1` [Pemetrexed], the “Avg (3 + 6)” value under setting [1] is listed as 0.365 fold. For the same compound, the “Log2 (fold)” value under setting [2] is recorded as −0.783. Also, the “Day 3 Fold” value under setting [3] came to 0.581 fold. Besides, the “Day 6 Fold” value under setting [4] turned out to be 0.149 fold.
`OC[C@H]1O[C@@H](n2cnc3c2NC=NC[C@H]3O)C[C@@H]1O` [Pentostatin]: the “Avg (3 + 6)” value under setting [1] is listed as 0.951 fold. Under “po, 72 h”, the “Day 3 Fold” value was 1.232 fold and the “Log2 (fold)” value was found to be 0.301.
As for `O=C(CCBr)N1CCN(C(=O)CCBr)CC1` [Pipobroman], under setting [1], the “Avg (3 + 6)” value amounted to 0.853 fold. The “Log2 (fold)” value under setting [2] is on record as −0.011. Besides, the “Day 3 Fold” value under setting [3] is 0.992 fold. Moreover, the “Day 6 Fold” value under setting [4] is reported as 0.714 fold.
For `CNNCc1ccc(C(=O)NC(C)C)cc1` [Procarbazine], the “Avg (3 + 6)” value under setting [1] is reported as 1.119 fold. Also, under setting [2], the “Log2 (fold)” value worked out at 0.470. Also, under setting [3], the “Day 3 Fold” value is 1.385 fold. For the same compound, the “Day 6 Fold” value under setting [4] turned out to be 0.854 fold.
On to `O=C(c1ccc(OCCN2CCCCC2)cc1)c1c(-c2ccc(O)cc2)sc2cc(O)ccc12` [Raloxifene HCl], for which the “Avg (3 + 6)” value under setting [1] stood at 1.100 fold. Also, the “Log2 (fold)” value under setting [2] is 0.337. Besides, under setting [3], the “Day 3 Fold” value is reported as 1.263 fold. The “Day 6 Fold” value under setting [4] stood at 0.936 fold.
On to `CNC(=O)c1cc(Oc2ccc(NC(=O)Nc3ccc(Cl)c(C(F)(F)F)c3)cc2)ccn1` [Sorafenib], for which, for the setting “in vivo”, the “Avg (3 + 6)” value is listed as 1.046 fold, the “Day 3 Fold” value amounted to 0.752 fold, the “Day 6 Fold” value amounted to 1.339 fold and the “Log2 (fold)” value is recorded as −0.410.
As for `CN(N=O)C(=O)N[C@@H](C=O)[C@@H](O)[C@H](O)[C@H](O)CO` [Streptozocin], under “in vivo”, the “Avg (3 + 6)” value is reported as 0.943 fold, the “Day 3 Fold” value was 1.030 fold, the “Day 6 Fold” value is given as 0.856 fold and the “Log2 (fold)” value is given as 0.043.
`CCN(CC)CCNC(=O)c1c(C)[nH]c(/C=C2\C(=O)Nc3ccc(F)cc32)c1C` [Sunitinib]: the “Avg (3 + 6)” value under setting [1] was determined as 0.816 fold. Further, the “Log2 (fold)” value under setting [2] was −0.243. For the same compound, under setting [3], the “Day 3 Fold” value was 0.845 fold. Further, the “Day 6 Fold” value under setting [4] is recorded as 0.788 fold.
Take `CC/C(=C(\c1ccccc1)c1ccc(OCCN(C)C)cc1)c1ccccc1` [Tamoxifen citrate]: the “Avg (3 + 6)” value under setting [1] is recorded as 0.919 fold. Under setting [2], the “Log2 (fold)” value is reported as −0.046. In addition, the “Day 3 Fold” value under setting [3] is 0.968 fold. Under setting [4], the “Day 6 Fold” value came to 0.869 fold.
The matching figures for `Cn1nnc2c(C(N)=O)ncn2c1=O` [Temozolomide]: 1.138 fold, −0.032, 0.978 fold and 1.298 fold.
